# Reference: patent US7727736B2, “Soluble phospholipids for use in clotting factor assays” (The University of North Carolina at Chapel Hill, priority 2003, dated 2010)
# How the values were obtained:
# factor IXa = biological target: T1, factor IXa (Homo sapiens, UniProt P00740); assay: Activation of factor X by factor IXa (proteolytic activity); type: biochemical
# T1 construct: intrinsic tryptophan fluorescence of factor IXa
# Procedure: The assay was conducted in the presence of increasing concentrations of C6PS.
# C6PS promotes the proteolytic activation of factor X by factor IXa, just as it promotes the proteolytic activation of prothrombin by factor Xa. […] The rate of activation of factor X by factor IXa in the presence of 700 μM C6PS was monitored at different concentrations of factor X (FIG. 11). The KM for this reaction was 300 nM, which is the same as that obtained with 20% PS/PC membranes (Larson et al. (1996) J. Biol. Chem. 271 3869).
# plasma = assay: Activated partial thromboplastin time (aPTT) assay; type: biochemical
# Procedure: Activated partial thromboplastin time assays were done using an optical detection method to determine clotting time. Two reaction mixtures were created. Mixture A had kaolin in concentrations ranging from 50 g/L to 500 g/L and either phospholipid vesicles (ranging from 0.67 to 240 μM) or C6PS (ranging from 5 μM to 5250 μM) in buffer of 20 mM HEPES (pH 7.4), 150 mM NaCl. Mixture B was 25 mM calcium chloride in a buffer of 20 mM HEPES (pH 7.4), 150 mM NaCl. Plasma, Mixture A, and Mixture B were all incubated at 37° C. for 3 minutes. Mixture A was added to plasma and incubated for 3 minutes at 37° C. Buffer B was added and the optical density was measured. Clotting was detected as an increase in absorbance.
# As expected, lipid vesicles shortened the Kaolin induced clotting time in a dose-dependent fashion by as much as 100 seconds. C6PS gave a dose dependent shortening in the clotting time, but the largest decrease was 13 seconds. We speculated that the Kaolin might interfere with C6PS. Since the purpose of Kaolin is to activate the contact factors of coagulation (high molecular weight kininogen, factor XII, and factor XI), we substituted 30 nM activated factor XI for Kaolin in the assay described above.
# factor Va = biological target: T2, factor Va (Bos taurus, UniProt Q28107); assay: Factor Va inactivation by APC; type: biochemical, bovine; set-up: APC cuts three bonds in the heavy chain of factor Va; bovine factor Va (100 nM)
# T2 sequence (Q28107 29-741 limits assumed): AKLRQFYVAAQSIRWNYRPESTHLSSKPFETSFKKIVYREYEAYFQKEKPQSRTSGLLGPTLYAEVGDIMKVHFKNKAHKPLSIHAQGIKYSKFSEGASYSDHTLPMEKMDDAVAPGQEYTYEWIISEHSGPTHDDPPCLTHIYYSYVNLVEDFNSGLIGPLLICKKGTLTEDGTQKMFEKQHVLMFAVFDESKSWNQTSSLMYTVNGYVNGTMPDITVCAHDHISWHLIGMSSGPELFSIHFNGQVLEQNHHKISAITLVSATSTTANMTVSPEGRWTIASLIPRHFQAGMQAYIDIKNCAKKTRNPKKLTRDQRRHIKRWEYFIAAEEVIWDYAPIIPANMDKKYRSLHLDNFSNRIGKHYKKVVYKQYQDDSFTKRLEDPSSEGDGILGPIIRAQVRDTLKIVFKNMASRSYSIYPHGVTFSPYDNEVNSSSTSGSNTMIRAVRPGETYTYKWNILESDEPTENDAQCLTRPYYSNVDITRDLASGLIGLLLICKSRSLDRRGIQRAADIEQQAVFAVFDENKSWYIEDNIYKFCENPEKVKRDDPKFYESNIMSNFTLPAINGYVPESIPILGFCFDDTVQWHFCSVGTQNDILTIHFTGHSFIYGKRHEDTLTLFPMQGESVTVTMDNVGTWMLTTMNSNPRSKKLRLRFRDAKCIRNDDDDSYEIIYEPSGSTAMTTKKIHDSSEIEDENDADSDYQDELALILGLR
# T2 sequence (Q28107 1565-2211 limits assumed): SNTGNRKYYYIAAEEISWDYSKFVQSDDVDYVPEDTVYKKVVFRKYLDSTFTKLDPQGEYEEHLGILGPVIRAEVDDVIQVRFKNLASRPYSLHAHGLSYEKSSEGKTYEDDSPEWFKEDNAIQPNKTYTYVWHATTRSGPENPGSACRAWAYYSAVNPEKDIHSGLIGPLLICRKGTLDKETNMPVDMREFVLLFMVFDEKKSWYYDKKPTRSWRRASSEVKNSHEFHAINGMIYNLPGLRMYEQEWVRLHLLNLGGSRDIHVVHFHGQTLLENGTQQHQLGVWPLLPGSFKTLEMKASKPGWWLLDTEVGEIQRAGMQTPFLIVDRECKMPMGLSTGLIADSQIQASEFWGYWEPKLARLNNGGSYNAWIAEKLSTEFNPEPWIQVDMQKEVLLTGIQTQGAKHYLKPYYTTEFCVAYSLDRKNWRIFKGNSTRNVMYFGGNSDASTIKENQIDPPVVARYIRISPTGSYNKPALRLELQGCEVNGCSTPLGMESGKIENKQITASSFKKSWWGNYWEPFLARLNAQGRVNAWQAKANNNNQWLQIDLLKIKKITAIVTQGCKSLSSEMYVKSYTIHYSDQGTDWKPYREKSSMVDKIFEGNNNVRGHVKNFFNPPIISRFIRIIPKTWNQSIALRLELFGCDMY
# Procedure: Aliquots of this mixture (10 μL) were added at selected time intervals to a cuvette containing prothrombin (1.4 μM), DAPA (5 μM), PCPS vesicle (50 μM), and factor Xa (10 nM) in a total assay volume of 1 mL. The fluorescence intensity of the thrombin-DAPA was monitored with time. Under these conditions, the rate of thrombin formation is proportional to the rate of DAPA fluorescence increase and is linearly related to the amount of active factor Va. The two isoforms of factor Va, Va1 (Frame A) and Va2 (Frame B) were inactivated at different rates and to different extents by APC depending on the availability of C6PS.
# Proteolysis at Arg^506 leads to partial inactivation, but proteolysis at Arg^306 is necessary for full inactivation (Kalafatis & Mann (1993) J. Biol. Chemistry 268 27246; Nicolaes et al., (1995) J. Biol. Chemistry (1995) 270 21158). […] The rate of proteolysis of the bond at Arg^306 increased from undetectable to a value of kcat/KM=3-3.5×10^6 M^−1sec^−1, identical to the rate reported with PS-containing membranes.
# T1 sequence (P00740 47-191 limits assumed): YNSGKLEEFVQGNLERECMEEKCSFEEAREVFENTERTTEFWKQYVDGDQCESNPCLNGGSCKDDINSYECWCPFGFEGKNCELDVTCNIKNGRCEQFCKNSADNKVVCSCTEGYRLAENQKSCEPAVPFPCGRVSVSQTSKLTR
# T1 sequence (P00740 227-461 limits assumed): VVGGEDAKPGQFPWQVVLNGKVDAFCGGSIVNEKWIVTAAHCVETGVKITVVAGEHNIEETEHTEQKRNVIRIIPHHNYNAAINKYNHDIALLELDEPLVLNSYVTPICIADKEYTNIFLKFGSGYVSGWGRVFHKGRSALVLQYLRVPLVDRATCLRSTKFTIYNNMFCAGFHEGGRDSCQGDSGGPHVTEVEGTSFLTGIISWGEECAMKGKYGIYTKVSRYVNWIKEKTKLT
compound,measurement,setting,value
"CCCCCC(=O)OC[C@H](COP(=O)(O)OC[C@H](N)C(=O)O)OC(=O)CCCCC [C6PS, 1,2-dicaproyl-sn-glycero-3-phospho-L-serine]",Kd,"factor IXa; 10 nM IXa, 5 mM calcium, read-out: Kd from proteolytic activity of IXa (hyperbolic fit)",164 µM
same,rate of activation of factor X by factor IXa compared with 20% PS/PC membranes,factor IXa; 700 μM C6PS,identical
same,maximal shortening of clotting time,plasma; 30 nM activated factor XI substituted for Kaolin,20 s
same,largest shortening of the Kaolin induced clotting time,plasma; Kaolin as activator,13 s
same,effect on extent of factor Va inactivation by APC,factor Va; 4 μM C6PS,only a small effect
same,effect on rate of factor Va inactivation by APC,factor Va; 4 μM C6PS,no effect
same,factor Va inactivation by APC,factor Va; 200 μM C6PS,complete inactivation
